Key:
CFTR channel activity = assay: Transepithelial short-circuit current and conductance in HAE; format: cell-based, human; conditions: PAF treated and CFTR DsiRNA transduced cells
CFTR protein = CFTR protein levels, immunoprecipitation and immunoblot with densitometry in HAE; format: cell-based, human
Procedure: FIG. 4. […] Alternatively, spiperone was applied apically and basolaterally to well-differentiated HAE for 6 hours, and then removed by rinsing before incubation for 4 hours with CFTR-targeting or NC1 DsiRNAs complexed with Transductin. In both cases, 24 hours after transfection, and RNA levels quantified by RT-qPCR. (b) A representative immunoblot from similarly treated wells, but cells were lysed and proteins visualized after immunoprecipitation with anti-CFTR antibody. Alpha-tubulin was used as a loading control. (c) Densitometry readings of immunoblots with results normalized to NC1 treated samples. In all cases, data are from 3 biological replicates and are mean±SD. ***p<0.001, **p<0.01 (Student's t-test).
HAE were rinsed with PBS and lysed in RIPA buffer (1% NP-40, 0.5% sodium deoxycholate, 0.1% SDS, 50 mM Tris, protease inhibitors [complete; mini, EDTA-free; Roche Biochemicals, Indianapolis, Ind.]) for 30 minutes at 4° C. The lysate were centrifuged in a table top centrifuge at 14,000 rpm for 20 minutes at 4° C. The supernatant was quantified by BCA protein assay kit (Pierce, Rockford, Ill.). Thirty micrograms of protein per lane was separated on a 10% Tris-HCL Criterion precast gel (Bio-Rad, Hercules, Calif.) for western blot analysis. The protein was transferred to Polyvinylidene difluoride membrane and then was probed with goat anti-RSV antibody purchased from Meridian Life Sciences (Memphis, Tenn.). The membrane was imaged, and then stripped with Restore Western Blot Stripping Buffer (Thermo Scientific, Lafayette, Colo.) for 15 minutes. The membrane was rinsed with Tris-buffered saline-Tween (TBS-T) and blocked in 5% bovine serum albumin (Research Products International Corp, Mt. Prospect, Ill.). The membrane was then reprobed with α-tubulin (Sigma-Aldrich).

Human HPRT mRNA = assay: HPRT mRNA silencing by DsiRNA-Transductin in well-differentiated HAE (RT-qPCR); format: cell-based
Procedure: FIG. 1. […] (a) Well-differentiated HAE cultures grown at the ALI were incubated in adding HPRT-targeting or control NC1 DsiRNA (250 nM) formulated with Transductin containing 0.1 or 0.01 mg LOS (HPRT-targeting DsiRNAs) or 0.1 mg LOS (NC1 DsiRNA). After 4 hours, the apical surface was rinsed and 24 hours later, target RNA levels quantified by RT-qPCR. All mRNA levels were normalized to NC1-treated samples. Mean levels were calculated from three biological replicates, each done in triplicate. ***p<0.001, **p<0.01 (Student's t-test). […] Samples were normalized to NC1-treated cells. ***p<0.001, **p<0.01 (Student's t-test). […] PAFRa was present throughout transfection in cells pre-treated with the reagent. Cells were harvested and RNA quantified 24 hrs later. Samples were normalized to NC1-treated cells. **p<0.01 (Student's t-test).
FIG. 3. Spiperone improves RNAi responses in DsiRNA transduced cells. HAE were pre-treated with various small molecules at the concentration indicated. The drugs were added to the apical surface and the basolateral media for 6 hours. Both surfaces were then washed and HPRT or NC1 DsiRNA formulated with Transductin added to the apical surface. The cells were washed after 4 hours, and RT-qPCR done on cell lysates harvested 24 hours later.
Human airway epithelial cells were obtained from trachea and bronchi of lungs removed for organ donation from non-CF individuals. Cells were isolated by enzyme digestion as previously described. Following enzymatic dispersion, cells were seeded at a density of 5×10^5 cells/cm^2 onto collagen-coated, 0.6 cm^2 semi permeable membrane filters (Millipore polycarbonate filters; Millipore Corp., Bedford, Mass.). The cells were maintained at 37° C. in a humidified atmosphere of 5% CO2 air. Twenty-four hours after plating, the apical media was removed and the cells were maintained at an air-liquid interface (ALI) to allow differentiation of the epithelium. The culture medium consisted of 1:1 ratio mix of Dulbecco's modified Eagle's medium (DMEM)/Ham's F12, 5% Ultroser G (Biosepra S A, Cedex, France), 100 U/ml penicillin, 100 μg/ml streptomycin, 1% nonessential amino acids and 0.12 U/ml insulin. Studies were performed on well-differentiated epithelia approximately 4 to 6 weeks after initiation of the ALI cultures conditions. HEp-2 cells were maintained in MEM substituted with 10% fetal bovine serum and 100 U/ml penicillin.
PAF was purchased from Sigma-Aldrich. The reagent was reconstituted in ethanol and used in the experiment at a concentration of 200 nM or as described in the figures. PAF was added to the transfection mixture at the apical surface as well as to the basolateral media. PAFRa (WEB 2086) was purchased from Sigma-Aldrich. […] The reagent was incubated with the cells throughout the transfection period.
All the small molecules tested were purchased from Sigma-Aldrich. The chemicals were reconstituted in appropriate solutions as recommended by the manufacturer. The epithelia were pre-treated with drugs for 6 hours at concentrations used in the CMAP study or noted in the published literature. Following drug treatment, the epithelia were transduced with DsiRNA as described above.
For well-differentiated airway epithelia, transfection was performed mostly according to the manufacturer's protocol. In all cases, the apical surface of epithelia was rinsed twice with PBS before adding the transfection mixture to the apical surface. DsiRNAs were used at a concentration of 250 nM. The mixture was left on the cells for 4 hours after which the medium was removed, the apical surface rinsed with PBS and the cells incubated further for 24 hours. For all experiments, a minimum of 3 biological replicates, in triplicate, were done.
Total RNA was isolated using SV96 RNA isolation kit (Promega, Madison, Wis.), according to manufacturer's protocol. […]

platelet activating factor [PAF]
cAMP-activated changes in transepithelial current and conductance (CFTR channel activity): significantly reduced | CFTR protein levels compared to controls (CFTR protein; PAF or spiperone and CFTR DsiRNA-Transductin, immunoprecipitation, western blot): reduced CFTR protein levels | fully glycosylated CFTR band C (CFTR protein; densitometry, normalized to NC1 treated samples): significantly decreased | duration of knock down: HPRT mRNA levels (Human HPRT mRNA; 1 and 3 days post PAF-assisted transfection): significantly reduced | duration of knock down: HPRT transcript levels (Human HPRT mRNA; 6 and 10 days post PAF-assisted transfection): returning to basal levels | dose-response of PAF on DsiRNA silencing (Human HPRT mRNA; PAF at different doses, 4 hours with HPRT DsiRNA-Transductin (FIG. 7)): A dose-response relationship for PAF on DsiRNA silencing was observed

Source: US9987299B2, “Methods of improving RNAi in well-differentiated airway epithelia” (University of Iowa Research Foundation, priority 2014, dated 2018)
